“Also recorded” adds a separate entry of the source. Where two headings read alike, the source gives them in different places. Residues, ends and D or L forms follow the SMILES beside them.
Columns and labels:
[1] = target: HumRadA2 (humanised, monomeric RadA; surrogate for RAD51) (Pyrococcus furiosus, UniProt O74036); assay: Isothermal titration calorimetry of peptides against HumRadA2; type: binding; conditions: for Change in binding affinity relative to FHTA: ITC K D compared with FHTA; for ΔH: Tris pH 7.5, 100 mM NaCl, low c-value conditions, ± = model-fitting error; for TΔS: ΔS derived from ΔG by subtracting ΔH
Procedure: Protein expression and purification was performed as described previously 15. In brief, monomeric HumRadA2 was expressed in E. coli using T7‐based expression vector at 37 °C for 3 h. Soluble cell lysate was heat treated to precipitate most of the cellular proteins and the soluble fraction containing HumRadA2 was purified using a combination of cation exchange chromatography at pH 6.0 and size‐exclusion chromatography in 10 mM MES, 100 mM NaCl pH 6.0 buffer. Protein concentration was determined using the calculated extinction coefficient at 280 nm, and stored at −80 °C in small aliquots after flash freezing.
Isothermal titration calorimetry experiments were performed at 25 °C on a MicroCal iTC200. HumRadA2 (600 μM in 20 mM MES pH 6.0 with 100 mM NaCl and 0.5 mM EDTA) was diluted with Tris buffer (200 mM, pH 7.5 with 100 mM NaCl) to 64–83 μM. […] The peptide solution was titrated into the protein solution; 16 injections (2.4 μL) of 4.8 s duration were made at 80‐s intervals. The initial injection of ligand (0.4 μL) was discarded during data analysis. […] The data were processed and thermodynamic parameters obtained by fitting the data to a single‐site‐binding model using Origin software and fixing the stoichiometry as 1.0 for weak‐binding ligands 16.

[2] = target: HumRadA2 (humanised, monomeric RadA from Pyrococcus furiosus) (Pyrococcus furiosus) (UniProt O74036); assay: ITC; peptide (2.5-5 mM) titrated into HumRadA2 (64-83 μM) at 25 °C, MicroCal iTC200, 200 mM Tris pH 7.5, 100 mM NaCl; single-site model, stoichiometry fixed as 1.0 for weak-binding ligands; low c-value conditions
[3] = target: HumRadA2 (humanised, monomeric RadA from Pyrococcus furiosus) (Pyrococcus furiosus) (UniProt O74036); assay: as above; remark: listed apart in the source
RAD51 = RAD51 oligomerisation sequence FTTA mutated; cited from earlier work
Description: Table 1 Summary of FxxA‐relevant mutations previously reported and degree of characterisation. The mutation, relevant peptide context, resulting FxxA motif sequence and experimental technique for each entry is given. For clarity, mutated residues are shown in bold | column: Effect

[4] = ITC, 25 °C, MicroCal iTC200, peptide 2.5–5 mM in 200 mM Tris pH 7.5, 100 mM NaCl titrated into 64–83 μM HumRadA2, single-site model, stoichiometry fixed at 1.0 for weak binders, ± = fitting error

CC(=O)N[C@@H](Cc1c[nH]c2ccccc12)C(=O)N[C@@H](Cc1c[nH]cn1)C(=O)N[C@H](C(=O)N[C@@H](C)C(N)=O)[C@@H](C)O [WHTA] (Ac-WHTA-NH2)
Change in binding affinity relative to FHTA [1]: increase the binding affinity of the peptide approximately threefold
Kd [1, 4]: 93 ± 3 µM
ΔH ([1]; ITC, 25 °C): -2768 ± 34 cal/mol
TΔS ([1]; ITC, 25 °C): 2727 cal/mol

FHTU tetrapeptide (U = α-amino butyric acid)
dH [2]: -14600 cal/mol

CC(=O)N[C@@H](Cc1ccccc1)C(=O)N[C@@H](Cc1c[nH]cn1)C(=O)N[C@H](C(=O)NCC(N)=O)[C@@H](C)O [FHTG] (Ac-FHTG-NH2)
Change in binding affinity relative to FHTA [1]: approximately sixfold drop in binding affinity
Kd [1, 4]: 1590 ± 300 µM
ΔH ([1]; ITC, 25 °C): -5518 ± 924 cal/mol
TΔS ([1]; ITC, 25 °C): -1702 cal/mol

CC(=O)N[C@@H](Cc1ccccc1)C(=O)N[C@@H](Cc1c[nH]cn1)C(=O)N[C@@H](C)C(=O)N[C@@H](C)C(N)=O [FHAA] (Ac-FHAA-NH2)
Kd [1, 4]: 675 ± 60 µM
ΔH ([1]; ITC, 25 °C): -7948 ± 466 cal/mol
TΔS ([1]; ITC, 25 °C): -3636 cal/mol

CC(=O)N[C@@H](Cc1ccccc1)C(=O)N[C@@H](Cc1c[nH]cn1)C(=O)N1CCC[C@H]1C(=O)N[C@@H](C)C(N)=O [FHPA] (Ac-FHPA-NH2)
Kd [1, 4]: 113 ± 3 µM
ΔH ([1]; ITC, 25 °C): -2155 ± 26 cal/mol
TΔS ([1]; ITC, 25 °C): 3218 cal/mol

CC[C@H](NC(=O)[C@@H](NC(=O)[C@H](Cc1c[nH]cn1)NC(=O)[C@H](Cc1ccccc1)NC(C)=O)[C@@H](C)O)C(N)=O [FHTU] (HELM PEPTIDE1{[ac].F.H.T.[Abu].[am]}$$$$V2.0)
Kd [1, 4]: 680 ± 51 µM

CC(=O)N[C@@H](Cc1c[nH]c2ccccc12)C(=O)N[C@@H](Cc1c[nH]cn1)C(=O)N1CCC[C@H]1C(=O)N[C@@H](C)C(N)=O [WHPA] (Ac-WHPA-NH2)
Change in binding affinity relative to FHTA [1]: no improvement
Kd [1, 4]: 330 ± 25 µM
ΔH ([1]; ITC, 25 °C): -6801 ± 318 cal/mol
TΔS ([1]; ITC, 25 °C): -2044 cal/mol

CC(=O)N[C@@H](Cc1ccccc1)C(=O)N[C@@H](Cc1c[nH]cn1)C(=O)N[C@H](C(=O)N[C@@H](C)C(N)=O)[C@@H](C)O [FHTA] (Ac-FHTA-NH2)
ΔH ([1]; ITC, 25 °C): -2388 ± 94 cal/mol
TΔS ([1]; ITC, 25 °C): 2453 cal/mol

CC(=O)N[C@@H](Cc1ccccc1)C(=O)N[C@@H](CC(N)=O)C(=O)N[C@H](C(=O)N[C@@H](C)C(N)=O)[C@@H](C)O [FNTA] (Ac-FNTA-NH2)
Kd [1, 4]: 613 ± 44 µM
ΔH ([1]; ITC, 25 °C): -4036 ± 177 cal/mol
TΔS ([1]; ITC, 25 °C): 346 cal/mol

FPTA [N-acetylated, C-amide terminated tetrapeptide FPTA]
K D [1, 4]: no affinity for the protein; also recorded: No detectable binding

Ac-FHTA-NH2 [FHTA tetrapeptide (FxxA motif of BRC4 of BRCA2)]
Kd [2]: 280 µM
dH [2]: -2390 cal/mol

Ac-FHPA-NH2 [FHPA tetrapeptide]
dH [2]: -2160 cal/mol

Ac-FHAA-NH2 [FHAA tetrapeptide]
dH [2]: -7950 cal/mol

Ac-FHTG-NH2 [FHTG tetrapeptide]
dH [2]: -5520 cal/mol

Ac-WHPA-NH2 [WHPA tetrapeptide]
dH [2]: -6800 cal/mol
Kd [3]: 690 µM

Ac-WHTA-NH2 [WHTA tetrapeptide]
dH [2]: -2770 cal/mol

Ac-FNTA-NH2 [FNTA tetrapeptide]
dH [2]: -4040 cal/mol

B1: RAD51 A89E: RAD51 with oligomerisation sequence FTTA mutated to FTTE (literature) (protein, UniProt Q06609 2-339, looked up, variant A89E)
DNA repair protein RAD51 …: AMQMQLEANADTSVEEESFGPQPISRLEQCGINANDVKKLEEAGFHTVEAVAYAPKKELINIKGISEAKADKILAEAAKLVPMGFTTETEFHQRRSEIIQITTGSKELDKLLQGGIETGSITEMFGEFRTGKTQICHTLAVTCQLPIDRGGGEGKAMYIDTEGTFRPERLLAVAERYGLSGSDVLDNVAYARAFNTDHQTQLLYQASAMMVESRYALLIVDSATALYRTDYSGRGELSARQMHLARFLRMLLRLADEFGVAVVITNQVVAQVDGAAMFAADPKKPIGGNIIAHASTTRLYLRKGRGETRICKIYDSPCLPEAEAMFAINADGVGDAKD
Effect of mutation (binding) (RAD51): No binding

B2: RAD51 F86E: RAD51 with oligomerisation sequence FTTA mutated to ETTA (literature) (protein, UniProt Q06609 2-339, looked up, variant F86E)
DNA repair protein RAD51 …: AMQMQLEANADTSVEEESFGPQPISRLEQCGINANDVKKLEEAGFHTVEAVAYAPKKELINIKGISEAKADKILAEAAKLVPMGETTATEFHQRRSEIIQITTGSKELDKLLQGGIETGSITEMFGEFRTGKTQICHTLAVTCQLPIDRGGGEGKAMYIDTEGTFRPERLLAVAERYGLSGSDVLDNVAYARAFNTDHQTQLLYQASAMMVESRYALLIVDSATALYRTDYSGRGELSARQMHLARFLRMLLRLADEFGVAVVITNQVVAQVDGAAMFAADPKKPIGGNIIAHASTTRLYLRKGRGETRICKIYDSPCLPEAEAMFAINADGVGDAKD
Effect of mutation (binding) (RAD51): No binding

Source: article PMC4855620, “Structure‐activity relationship of the peptide binding‐motif mediating the BRCA2:RAD51 protein–protein interaction” (Febs Letters, 2016)
